According to patent US12358921B2, “Antiviral heterocyclic compounds” (priority 2022, dated 2025):

Experiments:
hMPV A2 TN/94-49 = assay: HMPV antiviral assay Method 1 (LLC-MK2 cells, ATP-Lite); assay type: cell-based; conditions: hMPV A2 TN/94-49, LLC-MK2 cells
Description: In vitro HMPV antiviral activity was evaluated using the clinical isolate A2 strain TN 94-49 (obtained from Dr. John Williams, Vanderbilt University, Tennessee) and […] cells (ATCC #CCL-7), an immortalized kidney epithelial cell line from Macaca mulatta. Compounds were resuspended in dimethyl sulfoxide (DMSO) at 10 mM, serially diluted and added to a 384-well source plate. Subsequently, the compounds were diluted and transferred onto 384-well assay plates using the Echo-650 automated liquid handling system (Beckman Coulter, Indiana). The test compounds were assessed in duplicate at a top concentration of 2 μM followed by 2.5-fold serial dilutions to give a total of 10 concentration points. DMSO control wells were also included on the assay plates and were either infected or not, acting as positive and negative controls. A2 TN 94-49 virus infections were performed in-suspension with LLC-MK2 cells. The cells were washed twice with PBS and removed from the cell-culture flask with 0.25% trypsin-EDTA (Thermo Fisher Scientific, MA). The trypsin-EDTA was inactivated by resuspending in 2% fetal bovine serum (FBS) and OptiMEM (ThermoFisher Scientific, MA) containing 1% penicillin-streptomycin. Cells were pelleted by centrifuging for 5 minutes at 800 rpm, the supernatant was removed, and cells were re-suspended and washed in PBS plus 100 μg/mL CaCl2). This step was performed twice. Cells were then re-suspended in serum-free (SF)-OptiMEM containing 4 μg/mL TPCK-Trypsin (Sigma Aldrich, MO), 1% penicillin-streptomycin (ThermoFisher Scientific, MA) and 100 μg/mL CaCl2). Cells were counted and seeded at a density of 5,000 cells/well, 12.5 μL/well. Virus infections were done at a multiplicity of infection (MOI) of 0.005 with 12.5 μL added per well. Virus infections were performed in infection media which contained SF-OptiMEM, 100 μg/mL CaCl2) and 1% penicillin-streptomycin. HMPV viral stocks are suspended in infection media+5% glycerol, thus an equal volume of infection media+5% glycerol was added to uninfected wells to equalize the final % glycerol across all wells of the assay plate. The final concentration of TPCK-trypsin was 2 μg/mL. The assay plates were incubated at 37° C., 5% CO2 for 7 days. After 7 days incubation, 12.5 μL of ATP-Lite (PerkinElmer, MA) was added to each well and the raw luminescence values were determined using the Envision 2104 (Perkin Elmer, MA). The average of the raw luminescence values for the cells and virus only positive control wells was subtracted from all conditions tested and the percent cell health was determined by dividing these values by the average of the cells only negative control wells. EC50 values were then calculated by non-linear regression using a four-parameter curve logistic equation. The curve fit model employed was XLFit Dose Response One Site Model 200: y=(A+(B/(1+((x/C)^D)))), where A is the minimum y value, B is the maximum y value, C is the log EC50value, and D is the slope factor. Method 2: In Vitro HMPV Antiviral Activity was Evaluated Using the Clinical Isolate A2 Strain TN 94-49

[1] = test system: HUMAN RSV-A (“LONG” STRAIN); assay: RSV-A assay (CPE, ATPlite) in Hep-2 cells; assay type: cell-based; conditions: human respiratory syncytial virus, 120 h, MOI 0.1, 5-day incubation
In short: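 Protection from RSV cytopathic effect read by ATP luminescence (ATPlite) after 5-day culture. Genotype A "Long" virus added at MOI 0.1 to Hep-2 monolayers at 8,000 cells/well, pre-dosed with duplicate 2-fold compound dilutions; controls include infected untreated and uninfected wells. EC50 values binned into ranges.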

Row | EC50 (hMPV A2 TN/94-49) [nM] | EC50 [1] [nM] | SMILES
1 | < 500 | < 200 | [2H]C([2H])([2H])c1nc2c(OC)cc(C(=O)NC[C@](O)(c3cc4c(c(-c5cc(F)c(F)cc5F)n3)OC[C@]4(C)C(N)=O)C3CC3)cc2cc1Br [Example 7]
2 | > 500 | < 200 | Cc1nc2c(OC(F)F)cc(C(=O)NC[C@@](O)(c3cccc(F)c3)c3cc4c(c(-c5cc(Cl)c(F)cc5F)n3)OC[C@]4(C)C(N)=O)cc2cc1Br [Example 135]
3 | < 500 | < 200 | COc1cc(C(=O)NC[C@@](O)(c2ccsc2)c2cc3c(c(-c4cc(F)c(F)cc4F)n2)OC[C@]3(C)C(N)=O)cc2cn(C3CC3)nc12 [Example 177]
4 | < 500 | < 200 | COc1cc(C(=O)NC[C@@](O)(c2ccc(F)cc2)c2cc3c(c(-c4cc(Cl)c(F)cc4F)n2)OC[C@]3(C)C(N)=O)cc2cc(C3CC3)nn12 [Example 15]
5 | > 500 | < 200 | COc1cc(C(=O)NC[C@](O)(c2cc3c(c(-c4cc(Cl)c(F)cc4F)n2)OC[C@]3(C)C(N)=O)C2CC2)cc2cc(C(F)(F)F)cnc12 [Example 1]
6 | < 500 | < 200 | [2H]C([2H])([2H])c1nc2c(OC)cc(C(=O)NC[C@@](O)(c3cccc(OC)c3)c3cc4c(c(-c5cc(Cl)c(F)cc5F)n3)OC[C@]4(C)C(N)=O)cc2s1 [Example 163]
7 | < 500 | < 200 | [2H]C([2H])([2H])c1nc2c(OC)cc(C(=O)NC[C@@](O)(c3cccc(F)c3)c3cc4c(c(-c5ccc(F)c(Cl)c5Cl)n3)OC[C@]4(C)C(N)=O)cc2s1 [Example 272]
8 | < 500 | < 200 | COc1cc(C(=O)NC[C@@](O)(c2cccc(F)c2)c2cc3c(c(-c4ccc(F)c(Cl)c4Cl)n2)OC[C@]3(C)C(N)=O)cc2oc(C)nc12 [Example 279]
9 | < 500 | < 200 | COc1cc(C(=O)NC[C@@](O)(c2ccsc2)c2cc3c(c(-c4cc(Cl)c(F)cc4F)n2)OC[C@]3(C)C(N)=O)cc2cn(C3(F)CC3)nc12 [Example 175]
10 | < 500 | < 200 | COc1cc(C(=O)NC[C@@](O)(c2ccc(F)cc2)c2cc3c(c(-c4ccc(F)c(Cl)c4Cl)n2)OC[C@]3(C)C(N)=O)cc2cn(C(F)F)nc12 [Example 42]
11 | < 500 | < 200 | COc1cc(C(=O)NC[C@@](O)(c2ccccc2)c2cc3c(c(-c4cc(Cl)c(F)cc4F)n2)OC[C@]3(C)C(N)=O)cc2cn(C(F)F)nc12 [Example 156]
12 | < 500 | < 200 | [2H]C([2H])([2H])c1nc2c(OC)cc(C(=O)NC[C@@](O)(c3ccc(F)cc3)c3cc4c(c(-c5cc(Cl)c(F)cc5F)n3)OC[C@]4(C)C(N)=O)cc2s1 [Example 16]
13 | < 500 | < 200 | COc1cc(C(=O)NC[C@@](O)(c2ccsc2)c2cc3c(c(-c4cc(Cl)c(F)cc4F)n2)OC[C@]3(C)C(N)=O)cc2cn(C3CC3)nc12 [Example 173]
14 | < 500 | < 200 | COc1cc(C(=O)NC[C@@](O)(c2ccc(F)cc2)c2cc3c(c(-c4cc(Cl)c(F)cc4F)n2)OC[C@]3(C)C(N)=O)cc2cn(C(F)F)nc12 [Example 13]
15 | < 500 |  | COc1cc(C(=O)NC[C@@](O)(c2ccccc2)c2cc3c(c(-c4cc(Cl)c(F)cc4F)n2)OC[C@]3(C)C(N)=O)cc2oc(C)nc12 [Example 84]
16 | < 500 |  | COc1cc(C(=O)NC[C@@](O)(c2ccccc2)c2cc3c(c(-c4cc(Cl)c(F)cc4F)n2)OC[C@]3(C)C(N)=O)cc2cc(C(F)(F)F)cnc12 [Example 83]

Second part, the compound before the results:

Row | SMILES | EC50 (hMPV A2 TN/94-49) [nM] | EC50 [1] [nM]
17 | C[C@]1(C(N)=O)COc2c1cc([C@@](O)(CNC(=O)c1cc(Cl)c3nn(C4CC4)cc3c1)C1CC1)nc2-c1ccc2c(c1Cl)OC(F)(F)O2 [Example 35] | < 500 | < 200
18 | COc1cc(C(=O)NC[C@](O)(c2cc3c(c(-c4ccc5c(c4Cl)OC(F)(F)O5)n2)OC[C@]3(C)C(N)=O)C(F)(F)F)cc2cn(C3CC3)nc12 [Example 52] | > 500 | < 200
19 | COc1cc(C(=O)NC[C@](O)(c2cc3c(c(-c4cc(Cl)c(Cl)cc4Cl)n2)OC[C@]3(C)C(N)=O)C2CC2)cc2cn(C3CC3)nc12 [Example 62] | > 500 | < 200
20 | COc1cc(C(=O)NC[C@](O)(c2cc3c(c(-c4cc(F)c(F)cc4F)n2)OC[C@]3(C)C(N)=O)C2CC(F)(F)C2)cc2cn(C3CC3)nc12 [Example 31] | < 500 | < 200
21 | [2H]C([2H])([2H])c1nc2c(OC(F)F)cc(C(=O)NC[C@](O)(c3cc4c(c(-c5cc(Cl)c(F)cc5F)n3)OC[C@]4(C)C(N)=O)C3CC3)cc2cc1Br [Example 11] | > 500 | < 200
22 | COc1cc(C(=O)NC[C@](O)(c2cc3c(c(-c4cc(Cl)cc(Cl)c4Cl)n2)OC[C@]3(C)C(N)=O)C2CC2)cc2cn(C3CC3)nc12 [Example 61] | < 500 | < 200
23 | COc1cc(C(=O)NC[C@](O)(c2cc3c(c(-c4cc(C)cc(F)c4F)n2)OC[C@]3(C)C(N)=O)C2CC2)cc2cn(C3CC3)nc12 [Example 49] | > 500 | < 200
24 | COc1cc(C(=O)NC[C@](O)(c2cc3c(c(-c4ccc(C(F)(F)F)c(C)c4)n2)OC[C@]3(C)C(N)=O)C2CC2)cc2cn(C3CC3)nc12 [Example 55] | > 500 | < 200
25 | COc1cc(C(=O)NC[C@@](O)(c2ccccc2)c2cc3c(c(-c4cc(C(F)(F)F)ccc4F)n2)OC[C@]3(C)C(N)=O)cc2cn(C(F)F)nc12 [Example 148] | < 500 | < 200
26 | COc1cc(C(=O)NC[C@@](O)(c2ccccc2)c2cc3c(c(-c4ccc(F)c(Cl)c4Cl)n2)OC[C@]3(C)C(N)=O)cc2cn(C3CC3)nc12 [Example 257] | < 500 | < 200
27 | Cc1nc2ccc(C(=O)NC[C@@](O)(c3cccc(F)c3)c3cc4c(c(-c5ccc6c(c5Cl)OC(F)(F)O6)n3)OC[C@]4(C)C(N)=O)cc2o1 [Example 284] | < 500 | < 200
28 | C[C@]1(C(N)=O)COc2c1cc([C@@](O)(CNC(=O)c1cc(OC3CC3)c3nn(C4CC4)cc3c1)c1ccccc1)nc2-c1ccc2c(c1Cl)OC(F)(F)O2 [Example 252] | < 500 | < 200
29 | COc1cc(C(=O)NC[C@](O)(c2cc3c(c(-c4ccc(C)c(C(F)(F)F)c4)n2)OC[C@]3(C)C(N)=O)C2CC2)cc2cn(C3CC3)nc12 [Example 56] | > 500 | < 200
30 | [2H]C([2H])([2H])c1nc2c(OC)cc(C(=O)NC[C@](O)(c3cc4c(c(-c5ccc(F)c(Cl)c5Cl)n3)OC[C@]4(C)C(N)=O)C3CC3)cc2cc1Br [Example 24] | < 500 | < 200
31 | COc1cc(C(=O)NC[C@@](O)(c2ccccc2)c2cc3c(c(-c4ccc5c(c4Cl)OC(F)(F)O5)n2)OC[C@]3(C)C(N)=O)cc2cc(C3CC3)nn12 [Example 254] | < 500 | < 200
32 | COc1cc(C(=O)NC[C@](O)(c2cc3c(c(-c4cc(Cl)c(C)cc4F)n2)OC[C@]3(C)C(N)=O)C2CC2)cc2cn(C3CC3)nc12 [Example 51] | > 500 | < 200
33 | COc1cc(C(=O)NC[C@](O)(c2cc3c(c(-c4cc(F)c(F)cc4F)n2)OC[C@]3(C)C(N)=O)C2CC2)cc2cc(C(F)(F)F)cnc12 [Example 46] | > 500 | < 200
34 | C[C@]1(C(N)=O)COc2c1cc([C@@](O)(CNC(=O)c1ccc3nc(C(F)(F)F)oc3c1)c1ccccc1)nc2-c1cc(Cl)c(F)cc1F [Example 82] | > 500 | 
